Measured values: patent US20160339036A1, “Compound with Anti-Cancer Properties” (Velgene 3 Limited, priority 2013, published 2016)

Experiments:
[1] = tested on: PC3 human prostate carcinoma; test: PC3 human prostate tumour, implantation into prostate of CB17/scid mice; format: in vivo, CB17/scid male mice; settings: 2 mg/kg i.p. once every second day from 13th post-implantation day, evaluated on 31st day
Text: (§1) Both the environment of the experimental animals and the execution of the actual experiments followed the up to date legislation and ethical regulations of Hungary. […] The experimental animals were derived from the The Jackson Laboratory (610 Main Street Bar Harbor, Me. 04609, USA). All personnel involved with the in vivo experiments are qualified to perform the described experiments.
The abdominal wall of CB17/scid male mice was opened at the level of the prostate under Nembutal anaesthesia (75 mg/kg). A single cell suspension (2.15×10^5 cell/20 μl) of the PC3 human prostate carcinoma cell line was implanted into the prostate using micro syringe (Hamilton). The abdominal was closed with a single layer of surgical thread (3/0 Vicryl), the skin was closed with outwards turning wound edges using surgical clips (Michel Wound Clips, 7.5 mm). After the wound healing completed, the animals were randomised, divided into two groups (9 treated, 9 control) and labelled with individual ear-markings on the 13th post-implantation day. From that day onwards, the treated group was intraperitoneally (i.p) treated with T0504-7238 (2 mg/kg-3:1 DMSO:Solutol solution) once every second day. […] The animals were weighed weekly and individual changes were recorded using the ear-marking system. […]
(§2) The results of our measurements were evaluated using One-Way ANOVA Post Hoc Scheffe Test.

[2] = tested on: HT168M1 human melanoma; test: HT168M1 human melanoma, subcutaneous implantation in CB17/scid mice; format: in vivo, CB17/scid female mice
Text: as §1
2,5×10^5 human melanoma (HT168M1) cells, from the in vitro cell line, were subcutaneously (s.c.) implanted into the dorsal region of adult CB17/scid female mice with congenital immunodeficiency under diethyl ether narcosis. The animals were randomised, divided into two groups (11 treated, 11 control) and labelled with individual ear-markings on the 10th post-implantation day. From that day onwards, the treated group was intraperitoneally (i.p) treated with T0504-7238 (2 mg/kg-3:1 DMSO:Solutol solution) once every second day. The control group was also treated with identical frequency to the treatment group i.p. injecting appropriately diluted 3:1 DMSO:Solutol solution. The animals were weighed weekly and individual changes were recorded using the ear-marking system. The tumour diameter was also individually recorded from the earliest palpable stage using a pair of compasses (caliper). Tumour volume was estimated usin the π/6×a×b^2 formula, where ‘a’ is the longer and ‘b’ is the shorter diameter. The experiment was terminated on the 41st post-implantation day—the animals were sacrificed using Nembutal. The evaluation was based on the weight of the primary tumour.
as §2

[3] = tested on: tumour cell lines of Table 1 (CCRF-CEM, K562, MCF7, PANC1, B16, HT168M1, HCT116, PC3); test: Proliferation assay (MTT) on tumour cell lines; format: cell-based, human; mouse (B16); settings: 0.6, 2 and 6 μM, evaluated 24, 48 and 72 hours after treatment, One-Way ANOVA Post Hoc Scheffe Test, FIG. 4
Experimental: The first step was to examine the effect of T0504-7238 on the growth of tumour cells of the cell lines listed below in Table I. Our aim was to select the most therapy-sensitive cell lines as a preparation for the in vivo experiments.
Tumour cells were maintained in RPMI 1640 medium supplemented with 10% FBS (Sigma) and 1% penicillin/streptomycin solution (5,000 units penicillin and 5 mg streptomycin/ml) (Sigma) at 37° C. in a 5% CO2 atmosphere and used at confluence or at minimum 10^6 cells/ml density.
Single cell suspensions of different cell lines (Table 1) were put into 96-well microtiter plates for setting up 18-24 parallel samples per experimental group at 4×10^3 cell/well. The appropriate amount of T0504-7238 was suspended in a 3:1 DMSO: Solutol solution, which was then further diluted to the final concentration without the risk of precipitation. […]
Within each group samples were evaluated 24, 48 and 72 hours after treatment. […] After discarding of the culture medium plates were dried at room temperature, formazan crystals dissolved in dimethyl sulfoxide (100 μl/well) and the absorbance (OD) was measured at 570 nm using a microplate reader (Bio-Rad 550).
as §2

O=C1C(Cl)=C(N2CCOCC2)C(=O)c2ccc(S(=O)(=O)N3CCOCC3)cc21 [T0504-7238]
body weight, treated vs control animals at the time of evaluation ([1]; FIG. 6): no significant difference | average weight of the primary tumour, treated vs control group ([1]; FIG. 7): lower in the treated group | detectable tumor entirely necrotic, share of cases in treated group ([2]; 2 mg/kg i.p. once every second day from 10th post-implantation day, evaluated on 41st day): 20% | weight of the tumor, treated vs control group ([2]; 2 mg/kg i.p. once every second day from 10th post-implantation day, evaluated on 41st day, FIG. 5): significantly lower (p=0.026) | average body weight of treated animals vs controls at the time of evaluation ([2]; 2 mg/kg i.p. once every second day, 41st post-implantation day): this difference was not significant | growth of all tumour cell lines [3]: dose-dependently, significantly decreased the growth
